Data on 22 molecules can be found in patent US20230135729A1, “COMPOUND WITH ANTI-SPORE ACTIVITY AND PHARMACEUTICAL COMPOSITION THEREOF” (priority 2020, published 2023).

The structures appear in SMILES notation. In brackets after ≈: the same amount, converted by molar mass. Read-outs that look alike come from different tables or passages of the source.

Type in all cases: cell-based
Assay [1] deals with spores of ATCC BBA1870 strain. The assay can be described thus: Inhibition of germination of C. difficile spores (MIC), strain ATCC BBA1870. Conditions: Clostridioides difficile, ATCCBBA1870STRAIN, 1 h, read-out: MIC (minimum concentration that completely inhibits spore germination). The procedure, abridged:
(§1)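 Germination was followed as the drop in OD580 over 60 min at 37° C in BHIS after adding sodium taurocholate to spores premixed with compound. Spores were first heat-activated (65° C, 30 min) and washed free of self-germinating spores. The inhibition rate was calculated against germinant and non-germinant controls.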

Assay [2] deals with spores of ATCC 43255 strain. As to the kind of experiment: Inhibition of germination of C. difficile spores (MIC), strain ATCC 43255. Conditions: Clostridioides difficile, ATCC43255, 1 h, read-out: MIC (minimum concentration that completely inhibits spore germination). The procedure, abridged:
as §1

Assay [3] has as its system spores of ATCC 630 strain. As to the kind of experiment: Inhibition of germination of C. difficile spores (MIC), strain ATCC 630. Conditions: Clostridioides difficile, ATCC630, 1 h, read-out: MIC (minimum concentration that completely inhibits spore germination). The essentials: as §1
Where [4] appears, read: strain 1870, sodium taurocholate as germinant, BHIS medium, 37° C., OD580 for 60 min.
The mark [5] stands for this setting: strain 43255, sodium taurocholate as germinant, BHIS medium, 37° C., OD580 for 60 min.
The mark [6] stands for this setting: strain 630, sodium taurocholate as germinant, BHIS medium, 37° C., OD580 for 60 min.

For `CCCCCCCC(=O)O[C@@H]1C[C@@H]2CC(=O)CC[C@]2(C)[C@H]2CC[C@]3(C)[C@@H]([C@H](C)CC(=O)N[C@@H](c4ccc(Cl)s4)C(C)C)CC[C@H]3[C@H]12` [Compound I-185], the MIC in assay [1] (setting [4]), in assay [2] (setting [5]) and in assay [3] (setting [6]) was 128 µM (≈ 86.3 µg/mL) each time.
For `CCCCCCCC(=O)O[C@@H]1C[C@@H]2CC(=O)CC[C@]2(C)[C@H]2CC[C@]3(C)[C@@H]([C@H](C)CC(=O)N[C@@H](c4ccc(Br)s4)C(C)C)CC[C@H]3[C@H]12` [Compound I-186], the MIC in assay [1] (setting [4]), in assay [2] (setting [5]) and in assay [3] (setting [6]) was 256 µM (≈ 184 µg/mL) in each case.
For `CC[C@@H](NC(=O)C[C@@H](C)[C@H]1CC[C@H]2[C@@H]3[C@H](OC(=O)CCCCCCC(=O)O)C[C@@H]4CC(=O)CC[C@]4(C)[C@H]3CC[C@]12C)c1ccc(Cl)s1` [Compound I-187], the MIC in assay [1] (setting [4]), in assay [2] (setting [5]) and in assay [3] (setting [6]) was 0.125 µM (≈ 0.0863 µg/mL) in each case.
As for `CC[C@@H](NC(=O)C[C@@H](C)[C@H]1CC[C@H]2[C@@H]3[C@H](OC(=O)CCCCCCC(=O)O)C[C@@H]4CC(=O)CC[C@]4(C)[C@H]3CC[C@]12C)c1ccc(Br)s1` [Compound I-188], the MIC in assay [1] (setting [4]), in assay [2] (setting [5]) and in assay [3] (setting [6]) was 0.25 µM (≈ 0.184 µg/mL) in each case.
For the molecule `CC(C)[C@@H](NC(=O)C[C@@H](C)[C@H]1CC[C@H]2[C@@H]3[C@H](OC(=O)CCCCCCC(=O)O)C[C@@H]4CC(=O)CC[C@]4(C)[C@H]3CC[C@]12C)c1ccc(Cl)s1` [Compound I-189], the MIC in assay [1] (setting [4]) is 0.25 µM (≈ 0.176 µg/mL); in assay [2] (setting [5]), 0.25 µM (≈ 0.176 µg/mL); in assay [3] (setting [6]) it was 0.125 µM (≈ 0.0881 µg/mL).
Consider `CC(C)[C@@H](NC(=O)C[C@@H](C)[C@H]1CC[C@H]2[C@@H]3[C@H](OC(=O)CCCCCCC(=O)O)C[C@@H]4CC(=O)CC[C@]4(C)[C@H]3CC[C@]12C)c1ccc(Br)s1` [Compound I-190], for which the MIC in assay [1] (setting [4]), in assay [2] (setting [5]) and in assay [3] (setting [6]) was 0.25 µM (≈ 0.187 µg/mL) throughout.
With `CC[C@@H](NC(=O)C[C@@H](C)[C@H]1CC[C@H]2[C@@H]3[C@H](OP(=O)(O)O)C[C@@H]4CC(=O)CC[C@]4(C)[C@H]3CC[C@]12C)c1ccc(Cl)s1` [Compound I-191], the MIC in assay [1] (setting [4]), in assay [2] (setting [5]) and in assay [3] (setting [6]) was 64 µM (≈ 39.3 µg/mL) throughout.
In the case of `CC[C@@H](NC(=O)C[C@@H](C)[C@H]1CC[C@H]2[C@@H]3[C@H](OP(=O)(O)O)C[C@@H]4CC(=O)CC[C@]4(C)[C@H]3CC[C@]12C)c1ccc(Br)s1` [Compound I-192], the MIC in assay [1] (setting [4]), in assay [2] (setting [5]) and in assay [3] (setting [6]) was 64 µM (≈ 42.2 µg/mL) in each case.
Turning to `CC(C)[C@@H](NC(=O)C[C@@H](C)[C@H]1CC[C@H]2[C@@H]3[C@H](OP(=O)(O)O)C[C@@H]4CC(=O)CC[C@]4(C)[C@H]3CC[C@]12C)c1ccc(Cl)s1` [Compound I-193], the MIC in assay [1] (setting [4]), in assay [2] (setting [5]) and in assay [3] (setting [6]) was 64 µM (≈ 40.2 µg/mL) throughout.
Turning to `CC(C)[C@@H](NC(=O)C[C@@H](C)[C@H]1CC[C@H]2[C@@H]3[C@H](OP(=O)(O)O)C[C@@H]4CC(=O)CC[C@]4(C)[C@H]3CC[C@]12C)c1ccc(Br)s1` [Compound I-194], the MIC in assay [1] (setting [4]), in assay [2] (setting [5]) and in assay [3] (setting [6]) was 64 µM (≈ 43.1 µg/mL) throughout.
`CC[C@@H](NC(=O)C[C@@H](C)[C@H]1CC[C@H]2[C@@H]3C(=O)C[C@@H]4CC(=O)CC[C@]4(C)[C@H]3CC[C@]12C)c1ccc(C=O)s1` [Compound I-199]: the MIC in assay [1] (setting [4]), in assay [2] (setting [5]) and in assay [3] (setting [6]) was 16 µM (≈ 8.41 µg/mL) in each case.
As for `CC(C)[C@@H](NC(=O)C[C@@H](C)[C@H]1CC[C@H]2[C@@H]3C(=O)C[C@@H]4CC(=O)CC[C@]4(C)[C@H]3CC[C@]12C)c1ccc(C=O)s1` [Compound I-200], the MIC came out at 32 µM (≈ 17.3 µg/mL) in assay [1] (setting [4]), 32 µM (≈ 17.3 µg/mL) in assay [2] (setting [5]) and 16 µM (≈ 8.64 µg/mL) in assay [3] (setting [6]).
`CC[C@@H](NC(=O)C[C@@H](C)[C@H]1CC[C@H]2[C@@H]3C(=O)C[C@@H]4CC(=O)CC[C@]4(C)[C@H]3CC[C@]12C)c1ccc(C(C)=O)s1` [Compound I-201]: the MIC in assay [1] (setting [4]), in assay [2] (setting [5]) and in assay [3] (setting [6]) was 32 µM (≈ 17.3 µg/mL) each time.
As to `CC(=O)c1ccc([C@H](NC(=O)C[C@@H](C)[C@H]2CC[C@H]3[C@@H]4C(=O)C[C@@H]5CC(=O)CC[C@]5(C)[C@H]4CC[C@]23C)C(C)C)s1` [Compound I-202], the MIC in assay [1] (setting [4]), in assay [2] (setting [5]) and in assay [3] (setting [6]) was 32 µM (≈ 17.7 µg/mL) in each case.
With `CC[C@@H](NC(=O)C[C@@H](C)[C@H]1CC[C@H]2[C@@H]3C(=O)C[C@@H]4CC(=O)CC[C@]4(C)[C@H]3CC[C@]12C)c1ccc(N(C)C)s1` [Compound I-203], the MIC in assay [1] is 32 µM (≈ 17.3 µg/mL); in assay [2], 32 µM (≈ 17.3 µg/mL); in assay [3], 16 µM (≈ 8.65 µg/mL).
On to `CC(C)[C@@H](NC(=O)C[C@@H](C)[C@H]1CC[C@H]2[C@@H]3C(=O)C[C@@H]4CC(=O)CC[C@]4(C)[C@H]3CC[C@]12C)c1ccc(N(C)C)s1` [Compound I-204], for which the MIC in assay [1], in assay [2] and in assay [3] was 32 µM (≈ 17.8 µg/mL) throughout.
Take `CC[C@@H](NC(=O)C[C@@H](C)[C@H]1CC[C@H]2[C@@H]3C(=O)C[C@@H]4CC(=O)CC[C@]4(C)[C@H]3CC[C@]12C)c1ccc(C(=O)CCCCCCC(=O)O)s1` [Compound I-205]: the MIC in assay [1] (setting [4]), in assay [2] (setting [5]) and in assay [3] (setting [6]) was 128 µM (≈ 83.7 µg/mL) in each case.
In the case of `CC(C)[C@@H](NC(=O)C[C@@H](C)[C@H]1CC[C@H]2[C@@H]3C(=O)C[C@@H]4CC(=O)CC[C@]4(C)[C@H]3CC[C@]12C)c1ccc(C(=O)CCCCCCC(=O)O)s1` [Compound I-206], the results for the MIC in assay [1] (setting [4]), in assay [2] (setting [5]) and in assay [3] (setting [6]) were 256 µM (≈ 171 µg/mL), 128 µM (≈ 85.5 µg/mL) and 128 µM (≈ 85.5 µg/mL), respectively.
With `CC[C@@H](NC(=O)C[C@@H](C)[C@H]1CC[C@H]2[C@@H]3[C@H](OC(C)=O)CC4=CC(=O)CC[C@]4(C)[C@H]3CC[C@]12C)c1ccc(Br)s1` [I-155 -1], the MIC in assay [1] (setting [4]), in assay [2] (setting [5]) and in assay [3] (setting [6]) was 0.25 µM (≈ 0.155 µg/mL) throughout.
Regarding `CC(=O)O[C@@H]1CC2=CC(=O)CC[C@]2(C)[C@H]2CC[C@]3(C)[C@@H]([C@H](C)CC(=O)N[C@@H](c4ccc(Br)s4)C(C)C)CC[C@H]3[C@H]12` [I-156 -1], the MIC in assay [1] (setting [4]), in assay [2] (setting [5]) and in assay [3] (setting [6]) was 0.5 µM (≈ 0.316 µg/mL) each time.
In the case of `CC[C@@H](NC(=O)C[C@@H](C)[C@H]1CC[C@H]2[C@@H]3[C@H](OC(C)=O)CC4=CC(=O)CC[C@]4(C)[C@H]3CC[C@]12C)c1ccc(Cl)s1` [I-157 -1], the MIC in assay [1] (setting [4]) amounted to 0.5 µM (≈ 0.287 µg/mL); in assay [2] (setting [5]), 0.5 µM (≈ 0.287 µg/mL); in assay [3] (setting [6]), 0.25 µM (≈ 0.144 µg/mL).
For `CC(=O)O[C@@H]1CC2=CC(=O)CC[C@]2(C)[C@H]2CC[C@]3(C)[C@@H]([C@H](C)CC(=O)N[C@@H](c4ccc(Cl)s4)C(C)C)CC[C@H]3[C@H]12` [I-158 -1], the MIC in assay [1] (setting [4]), in assay [2] (setting [5]) and in assay [3] (setting [6]) was 0.5 µM (≈ 0.294 µg/mL) in each case.
